The assay addresses T1, p38α (Homo sapiens, UniProt Q16539).
T1 construct: p38 MAP Kinases are recombinant human full-length proteins with an amino-terminal GST fusion; GST (N); purchased Upstate Biotechnology Inc; host or cells: E. coli
Kind of assay: p38 MAP Kinase assay: inhibition of ATF2 phosphorylation, ELISA. It counts as biochemical. The note with it: for inhibition at 10 µM: substrate ATF2, read-out: [ENZ] P38 ALPHA, PCT INH, ELISA (10 uM;ATF2) (Percent); for IC50: ATF2 phosphorylation, read-out: [ENZ] P38 ALPHA, IC50, ELISA. From the text: Compounds of the invention are screened for the ability to inhibit ATF2 phosphorylation by p38 MAP Kinase in vitro. The ability of compounds to inhibit ATF2 phosphorylation in this in vitro assay is correlated with the inhibition of p38 MAP Kinase and TNFα expression in vivo, and is therefore an indicator of potential in vivo therapeutic activity (Raingeaud, J., et al, J. Biol. Chem., 270: 7420-7426, 1995, Brinkman, M. N., et al, J. Biol. Chem. 274: 30882-30886, 1999 and Fuchs, S. Y. et al, J. Biol. Chem. 275: 12560-12564, 2000).
Materials: All kinases and the substrate ATF2 are acquired from Upstate Biotechnology Inc. p38 MAP Kinases are recombinant human full-length proteins with an amino-terminal GST fusion, expressed in and purified from E. coli. ATF2 is a GST fusion protein containing amino acids 19-96 of human ATF2 expressed in E. coli. All proteins are aliquoted and stored at −80° C.
Methods: p38 MAP Kinase assays are performed using an assay buffer containing 25 mM HEPES, pH 7.5, 10 mM MgCl2, 2 mM DTT, 20 mM β-glycerophosphate, 0.1 mM Na3VO4, 40 μM ATP and 1.25 μM of ATF2 and in the absence or presence of 1% human serum albumin, Method I and II, respectively, with 0.4-6 ng of protein depending on the kinase used. Compounds are serially diluted in DMSO and 2 μL of test compound at 25× final concentration is used. The vehicle control receives DMSO only. Test compounds are pre-incubated with 20 μl of enzyme in kinase buffer (25 mM HEPES, pH 7.5, 10 mM MgCl2, 2 mM DTT, 20 mM β-glycerophosphate, 0.1 mM Na3VO4 in the absence or presence of 1% human serum albumin, Method I and II, respectively) at room temperature for 15 minutes. […] The reactions are incubated for 30 minutes at 37° C. and terminated by the addition of 18 μl of 200 mM EDTA. An ELISA method (I or II) is used to measure the phosphorylation of ATF2 at Thr 69. Method I: 96-well high binding plates (Corning 3369) are coated with 50 μl of kinase reaction for 1 hour at 37° C. The coated plates are washed with 200 μl washing buffer (25 mM Tris HCl, pH 8.3, 192 mM glycine, 0.1% SDS and 0.05% Tween-20) three times. The plates are then washed three times with SuperBlock in TBS (Pierce, 37535). After blocking, plates are incubated with 50 μl of rabbit anti-phospho-ATF2 antibody (Cell Signaling, 9221L, 1:500) for 30 minutes at 37° C. Plates are washed three times with washing buffer prior to incubation with 50 μl HRP-conjugated goat anti-rabbit antibody (Cell Signaling, 7074, 1:500) for 30 minutes at 37° C. Plates are then washed three times with washing buffer before incubation with 50 μl of Ultra TMB-ELISA (Pierce, 34028) for 8 minutes at room temperature. Finally, 50 ul of phosphoric acid (1 M) is added to stop reactions and plate absorbance is read at 450 nm on a SpectraMax 250 plate reader. Method II: 96-well high binding plates (Corning 3369) are coated with 400 ng of monoclonal antibody against GST-tag (Cell signaling) in 100 μl containing sodium borate (pH 8.3) for 90 minutes at 37° C. The plates are washed with 200 μl washing buffer (25 mM Tris HCl, pH 7.2, 150 mM NaCl and Tween-20) three times and blocked with 200 μl of 5% nonfat milk for 30 minutes at room temperature. The plates are washed three times with washing buffer, 50 μl of stopped kinase reaction are added to each well and incubated for 80 minutes at 37° C. The plates are washed three times with 200 μl washing buffer, and the plates are incubated with 50 μl of rabbit anti-phospho-ATF2 antibody (Cell Signaling, 9221L, 1:500) for 30 minutes at 37° C. Plates are washed three times with washing buffer prior to incubation with 50 μl HRP-conjugated goat anti-rabbit antibody (Cell Signaling, 7074, 1:500) for 30 minutes at 37° C. Plates are washed three times with washing buffer before incubation with 50 μl of Ultra TMB-ELISA (Pierce, 34028) for 25 minutes at room temperature. Finally, 50 μl of phosphoric acid (1 M) is added to stop reactions and plate absorbance is read at 450 nm on a SpectraMax 250 plate reader. […]
(In general: In an ELISA, binding on a coated surface is turned into a signal by an enzyme label.)

T1 sequence (Q16539 whole entry, the tested form may be a part): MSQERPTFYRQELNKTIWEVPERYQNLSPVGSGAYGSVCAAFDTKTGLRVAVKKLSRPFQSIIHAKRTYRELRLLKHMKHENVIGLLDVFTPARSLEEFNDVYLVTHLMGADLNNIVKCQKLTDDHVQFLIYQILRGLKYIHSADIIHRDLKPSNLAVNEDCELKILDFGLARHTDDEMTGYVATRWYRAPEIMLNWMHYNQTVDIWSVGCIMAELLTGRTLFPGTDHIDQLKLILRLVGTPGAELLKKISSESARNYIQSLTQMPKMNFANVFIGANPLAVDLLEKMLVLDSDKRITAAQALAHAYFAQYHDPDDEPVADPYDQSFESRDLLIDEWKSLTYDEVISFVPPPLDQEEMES

Turning to `CC(C)(C)c1ccc(-c2cccc(C(=O)Nc3ccc(OCCN4CCOCC4)c4ccccc34)c2)cc1` [Compound B106], the inhibition at 10 µM is 0%. The same measure, in the same setting: to `CCOc1ccc(-c2cccc(C(=O)Nc3ccc(OCCN4CCOCC4)c4ccccc34)c2)cc1` [Compound B107] belongs 2%. As usually defined, the IC50 is the concentration at which inhibition is half-maximal. For the compound `CCOc1ccccc1-c1cccc(C(=O)Nc2ccc(OCCN3CCOCC3)c3ccccc23)c1` [Compound B109], the inhibition at 10 µM was 52% and the half-inhibitory concentration (IC50) worked out at 4.07 µM. For `COc1ccc(Cl)cc1-c1cccc(C(=O)Nc2ccc(OCCN3CCOCC3)c3ccccc23)c1` [Compound B111], in that order: 50% and 5.06 µM.

As to `COc1cc(-c2cccc(C(=O)Nc3ccc(OCCN4CCOCC4)c4ccccc34)c2)cc(OC)c1OC` [Compound B112], the inhibition at 10 µM was 15% and the IC50 is over 100 µM. In the case of `Cc1cc(C)cc(-c2cccc(C(=O)Nc3ccc(OCCN4CCOCC4)c4ccccc34)c2)c1` [Compound B113], the inhibition at 10 µM was 29% and the IC50 is over 10 µM. On to `Cc1ccc(-c2cccc(C(=O)Nc3ccc(OCCN4CCOCC4)c4ccccc34)c2)c2ccccc12` [Compound B114], for which the inhibition at 10 µM was 11.3%. Turning to `O=C(Nc1ccc(OCCN2CCOCC2)c2ccccc12)c1cccc(-c2ccccc2Oc2ccccc2)c1` [Compound B115], the inhibition at 10 µM is 10%. Consider `CSc1ccccc1-c1cccc(C(=O)Nc2ccc(OCCN3CCOCC3)c3ccccc23)c1` [Compound B116], for which the inhibition at 10 µM is 54% and the IC50 was found to be 2.74 µM. Consider `CCCCc1ccc(-c2cccc(C(=O)Nc3ccc(OCCN4CCOCC4)c4ccccc34)c2)cc1` [Compound B117], for which the inhibition at 10 µM turned out to be 4%. As to `O=C(Nc1ccc(OCCN2CCOCC2)c2ccccc12)c1cccc(-c2ccc(C3CCCCC3)cc2)c1` [Compound B118], the inhibition at 10 µM came to 0%. With `O=C(Nc1ccc(OCCN2CCOCC2)c2ccccc12)c1cccc(-c2cccc(OCc3ccccc3)c2)c1` [Compound B119], the inhibition at 10 µM was found to be 11% and the IC50 is over 100 µM. The matching figures for `O=C(Nc1ccc(OCCN2CCOCC2)c2ccccc12)c1cccc(-c2cc(Cl)cc(Cl)c2Cl)c1` [Compound B120]: 39% and over 100 µM. For the compound `O=C(Nc1ccc(OCCN2CCOCC2)c2ccccc12)c1ccnc(N2CCc3ccccc3C2)c1` [Compound B121], the inhibition at 10 µM amounted to 31.5%.

`O=C(Nc1ccc(OCCN2CCOCC2)c2ccccc12)c1ccnc(N2CCC(Cc3ccccc3)CC2)c1` [Compound B124]: the inhibition at 10 µM is 7%. Still for that read-out and setting: the value for `O=C(Nc1ccc(OCCN2CCOCC2)c2ccccc12)c1ccnc(N2CCC(N3CCCC3)CC2)c1` [Compound B125] was 23.5%; that for `O=C(Nc1ccc(OCCN2CCOCC2)c2ccccc12)c1ccnc(N2CCC(N3CCCCC3)CC2)c1` [Compound B129] was 19.5%. Still for that read-out and setting: to `O=C(Nc1ccc(OCCN2CCOCC2)c2ccccc12)c1ccnc(N2CCC(CO)CC2)c1` [Compound B131] belongs 34%; to `O=C(Nc1ccc(OCCN2CCOCC2)c2ccccc12)c1ccnc(N2Cc3ccccc3C2)c1` [Compound B132], 36%. On the same count and under the same terms, the value for `O=C(Nc1ccc(OCCN2CCOCC2)c2ccccc12)c1cccc(N2CCOCC2)n1` [Compound B134] was 20%. On to `O=C(Nc1ccc(OCCN2CCOCC2)c2ccccc12)c1cccc(N2CCCCCCC2)n1` [Compound B135], for which the inhibition at 10 µM amounted to 20% and the concentration for half-maximal inhibition (IC50) is over 100 µM.

On to `CC(=O)N1CCN(c2cccc(C(=O)Nc3ccc(OCCN4CCOCC4)c4ccccc34)n2)CC1` [Compound B136], for which the inhibition at 10 µM turned out to be 10%. Take `CN(c1cccc(C(=O)Nc2ccc(OCCN3CCOCC3)c3ccccc23)n1)C1CCCCC1` [Compound B137]: the inhibition at 10 µM came out at 32% and the IC50 is over 100 µM. On to `O=C(Nc1ccc(OCCN2CCOCC2)c2ccccc12)c1cccc(N2CCSC2)n1` [Compound B138], for which the inhibition at 10 µM was -36%.

Regarding `O=C(Nc1ccc(OCCN2CCOCC2)c2ccccc12)c1cccc(N2CCN(c3ccc(F)cc3)CC2)n1` [Compound B139], the inhibition at 10 µM was 7%. `O=C(Nc1ccc(OCCN2CCOCC2)c2ccccc12)c1cccc(N2CCC(Cc3ccccc3)CC2)n1` [Compound B140]: the inhibition at 10 µM came out at 4%.

Turning to `CC1CC(C)CN(c2cccc(C(=O)Nc3ccc(OCCN4CCOCC4)c4ccccc34)n2)C1` (centres unmarked) [Compound B141], the inhibition at 10 µM came out at 13%. For the compound `O=C(Nc1ccc(OCCN2CCOCC2)c2ccccc12)c1cccc(N2CCCCC2)n1` [Compound B142], the inhibition at 10 µM came out at 33% and the IC50 was over 100 µM. For `CC1CCN(c2cccc(C(=O)Nc3ccc(OCCN4CCOCC4)c4ccccc34)n2)CC1` [Compound B143], in that order: 32% and over 100 µM.

`CC1CCCN1c1cccc(C(=O)Nc2ccc(OCCN3CCOCC3)c3ccccc23)n1` (centres unmarked) [Compound B144]: the inhibition at 10 µM amounted to 17%. Take `O=C(Nc1ccc(OCCN2CCOCC2)c2ccccc12)c1cccc(N2CCC(CO)CC2)n1` [Compound B145]: the inhibition at 10 µM turned out to be 11%. Consider `Cc1cccc(C)c1N1CCN(c2cccc(C(=O)Nc3ccc(OCCN4CCOCC4)c4ccccc34)n2)CC1` [Compound B146], for which the inhibition at 10 µM stood at 7.5%.

Consider `CC(C)(C)CCNc1cccc(C(=O)Nc2ccc(OCCN3CCOCC3)c3ccccc23)n1` [Compound B147], for which the inhibition at 10 µM is 12%. The same measure, in the same setting: the value for `CCN(C)c1cccc(C(=O)Nc2ccc(OCCN3CCOCC3)c3ccccc23)n1` [Compound B148] was 15.5%.

For the compound `CCC(C)N(C)c1cccc(C(=O)Nc2ccc(OCCN3CCOCC3)c3ccccc23)n1` (centres unmarked) [Compound B149], the inhibition at 10 µM worked out at 8.5%. `Cc1cc(C(=O)Nc2ccc(OCCN3CCOCC3)c3ccccc23)cc(N2CCc3ccccc3C2)n1` [Compound B150]: the inhibition at 10 µM was found to be 15% and the IC50 was over 100 µM. Consider `Cc1cc(C(=O)Nc2ccc(OCCN3CCOCC3)c3ccccc23)cc(N2CCSC2)n1` [Compound B151], for which the inhibition at 10 µM was 0%.

As for `Cc1cc(C(=O)Nc2ccc(OCCN3CCOCC3)c3ccccc23)cc(N2CCC(N3CCCC3)CC2)n1` [Compound B152], the inhibition at 10 µM was determined as 0%. With `Cc1cc(C(=O)Nc2ccc(OCCN3CCOCC3)c3ccccc23)cc(N2CCCC2c2ccccc2Cl)n1` (centres unmarked) [Compound B156], the inhibition at 10 µM stood at 19% and the half-maximal inhibitory concentration (IC50) is over 100 µM. In the case of `CCN(C)c1cc(C(=O)Nc2ccc(OCCN3CCOCC3)c3ccccc23)cc(C)n1` [Compound B157], the inhibition at 10 µM stood at 8%.
